Source: PMC6151488, “Structure, Absolute Configuration, and Antiproliferative Activity of Abietane and Icetexane Diterpenoids from Salvia ballotiflora” (Molecules : A Journal of Synthetic Chemistry and Natural …, 2017)
“And” between values parts separate entries of the source, which are not always exact repeats. Equal entries are not always repeated. Where two headings read alike, the source gives them in different places.

Key:
[1] = tested on: healthy gingival human fibroblasts (FGH); assay: Sulforhodamine B (SRB) cytotoxicity assay, FGH primary culture; assay type: cell-based; settings: primary screening at 50.0 μM; mean n = 2; NC = No cytotoxic
Description: The natural products were screened in vitro against the following human cancer cell lines: human mammary adenocarcinoma (MCF-7), human chronic myelogenous leukemia (K562), human glioblastoma (U251), human lung adenocarcinoma (SKLU-1), human colon cancer (HCT-15), human prostate cancer (PC-3), healthy gingival human fibroblasts (FGH), and normal monkey kidney cell lines, which were supplied by the National Cancer Institute (NCI, USA) and American Type Culture Collection (ATTC). The human tumor cytotoxicity was determined using the protein-binding dye sulforhodamine B (SRB) in a microculture assay to measure cell growth, as described in the protocol established by the NCI [30]. The cell lines were cultured in RPMI-1640 medium supplemented with 10% fetal bovine serum, 2 mM L-glutamine, 10,000 units/mL penicillin G sodium, 10,000 μg/mL streptomycin sulfate, and 25 μg/mL amphotericin B (Gibco), and 1% non-essential amino acids (Gibco). […] The viability of the cells used in the experiments exceeded 95%, as determined with trypan blue.
(§1) Cytotoxicity after treatment of the tumors cells and normal cells with the test compounds were determined using the protein-binding dye sulforhodamine B (SRB) in a microculture assay to measure cell growth. […] The plates were placed on a shaker for 10 min, and the absorption was determined at 515 nm using an ELISA plate reader (Bio-Tex Instruments).

[2] = tested on: TPA-induced ear edema; assay: TPA-induced ear edema test in mice; assay type: in vivo; settings: mice CD-1, 1.0 μmol ear^-1 topical, 4 h after TPA, mean ± SEM; for Inhibition of Edema (%): NA = Non-active
Description: Male CD-1 mice weighing 25–30 g were maintained under standard laboratory conditions in the animal house (temperature 24 ± 2 °C) in a 12/12 h light/dark cycle, fed a laboratory diet and water ad libitum, following the Mexican official norm NOM-062-Z00-1999.
The TPA-induced ear edema assay in mice was performed as reported in reference. A solution of TPA (2.5 μg) in ethanol (10 μL) was applied topically to both faces (5 μL each ear) of the right ear of the mice, 10 min after solutions of the test substances in their respective solvents were applied (10 μL each face). The left ear received ethanol (10 μL) first, followed by 20 μL of the respective solvent. The mice were killed with CO2 four hours later. A 7-mm diameter plug was removed from each ear. The swelling was assessed as the difference in weight between the left and the right ear. Control animals received the correspondent solvent in each case. Edema inhibition (EI %) was calculated by the equation EI % = 100 − (B × 100/A), where A is the edema induced by TPA alone and B is the edema induced by TPA plus the sample. Indomethacin and celecoxib were used as reference compounds.

[3] = tested on: U251 (human glioblastoma); assay: Sulforhodamine B (SRB) cytotoxicity assay, U251; assay type: cell-based; settings: for inhibition at 50 µM: primary screening at 50.0 μM, NC = No cytotoxic
Description: (§2) The natural products were screened in vitro against the following human cancer cell lines: human mammary adenocarcinoma (MCF-7), human chronic myelogenous leukemia (K562), human glioblastoma (U251), human lung adenocarcinoma (SKLU-1), human colon cancer (HCT-15), human prostate cancer (PC-3), healthy gingival human fibroblasts (FGH), and normal monkey kidney cell lines, which were supplied by the National Cancer Institute (NCI, USA) and American Type Culture Collection (ATTC). The human tumor cytotoxicity was determined using the protein-binding dye sulforhodamine B (SRB) in a microculture assay to measure cell growth, as described in the protocol established by the NCI [30]. The cell lines were cultured in RPMI-1640 medium supplemented with 10% fetal bovine serum, 2 mM L-glutamine, 10,000 units/mL penicillin G sodium, 10,000 μg/mL streptomycin sulfate, and 25 μg/mL amphotericin B (Gibco), and 1% non-essential amino acids (Gibco). They were maintained at 37 °C in a humidified atmosphere with 5% CO2.
(§3) Cytotoxicity after treatment of the tumors cells and normal cells with the test compounds were determined using the protein-binding dye sulforhodamine B (SRB) in a microculture assay to measure cell growth. The cells were removed from the tissue culture flasks by treatment with trypsin, and diluted with fresh media. Of these cell suspensions, 100 μL containing 5000–10,000 cells per well were pipetted into 96-well microtiter plates (Costar) and the material was incubated at 37 °C for 24 h in a 5% CO2 atmosphere. Subsequently, 100 μL of a solution of the compound obtained by diluting the stocks were added to each well. The cultures were exposed to the compound for 48 h. After the incubation period, cells were fixed to the plastic substratum by the addition of 50 μL of cold 50% aqueous trichloroacetic acid. The plates were incubated at 4 °C for 1 h, washed with tap water, and air-dried. The trichloroacetic-acid-fixed cells were stained by the addition of 0.4% SRB. The free SRB solution was then removed by washing with 1% aqueous acetic-acid. The plates were air-dried, and the bound dye was dissolved by the addition of 10 mM unbuffered Tris base (100 μL). The plates were placed on a shaker for 10 min, and the absorption was determined at 515 nm using an ELISA plate reader (Bio-Tex Instruments).

[4] = tested on: K562 (human chronic myelogenous leukemia); assay: Sulforhodamine B (SRB) cytotoxicity assay, K562; assay type: cell-based; settings: for IC50: SRB assay, 48 h exposure, mean ± SD, read-out: IC50 antiproliferative activity, K562; for inhibition at 50 µM / Antiproliferative activity (%), K562: primary screening at 50.0 μM, NC = No cytotoxic
Description: as §2, with “CO2. The viability of the cells used in the experiments exceeded 95%, as determined with trypan blue.” for “CO2.”
as §3

[5] = tested on: PC-3 (human prostate cancer); assay: Sulforhodamine B (SRB) cytotoxicity assay, PC-3; assay type: cell-based; settings: for inhibition at 50 µM: primary screening at 50.0 μM, mean n = 2, NC = No cytotoxic, read-out: Antiproliferative activity (%), PC-3
Description: as §2, with “CO2. The viability of the cells used in the experiments exceeded 95%, as determined with trypan blue.” for “CO2.”
as §3

[6] = tested on: MCF-7 (human mammary adenocarcinoma); assay: Sulforhodamine B (SRB) cytotoxicity assay, MCF-7; assay type: cell-based; settings: for IC50 / inhibition at 50 µM: Homo sapiens, MCF7; for IC50: SRB assay, 48 h exposure, mean ± SD, read-out: IC50 antiproliferative activity, MCF-7; for inhibition at 50 µM / Antiproliferative activity (%), MCF-7: mean n = 2, NC = No cytotoxic; for inhibition at 50 µM: read-out: Antiproliferative activity (%), MCF-7
Description: as §2, with “CO2. The viability of the cells used in the experiments exceeded 95%, as determined with trypan blue.” for “CO2.”
as §3

[7] = tested on: SKLU-1 (human lung adenocarcinoma); assay: Sulforhodamine B (SRB) cytotoxicity assay, SKLU-1; assay type: cell-based; settings: for inhibition at 50 µM: primary screening at 50.0 μM, NC = No cytotoxic; for IC50: SRB assay, 48 h exposure, mean ± SD, read-out: IC50 antiproliferative activity, SKLU-1
Description: as §2, with “CO2. The viability of the cells used in the experiments exceeded 95%, as determined with trypan blue.” for “CO2.”
as §3

[8] = tested on: HCT-15 (human colon cancer); assay: Sulforhodamine B (SRB) cytotoxicity assay, HCT-15; assay type: cell-based; settings: for inhibition at 50 µM: primary screening at 50.0 μM, mean n = 2, NC = No cytotoxic, read-out: Antiproliferative activity (%), HCT-15
Description: as §2, with “CO2. The viability of the cells used in the experiments exceeded 95%, as determined with trypan blue.” for “CO2.”
as §3

[9] = Scavenging activity on free radical DPPH; settings: at 100 μM; 30 min, 37 °C
Description: Free radical scavenging activity was measured using an adapted method of Mellors and Tappel. The test was carried out in 96-well microplates. A 50-μL aliquot of the solution of the test compound was mixed with 150 μL of an ethanol solution of DPPH (final concentration 100 μM). The mixture was incubated at 37 °C for 30 min, and the absorbance was then measured at 515 nm using a BioTek microplate reader SYNERGY HT. The percent inhibition was determined by comparison with a 100-μM DPPH ethanol blank solution.

[10] = tested on: six human cancer cell lines (U251, PC-3, K562, HCT-15, MCF-7, SKLU-1) and FGH; assay: SRB primary screening, whole panel (result in words); assay type: cell-based; settings: primary screening at 50 μM; cancer cell lines other than K562 and MCF-7
Description: The same biological activity was also recently described for icetexane-derivatives isolated from Premna and Amentotaxus species. […] These facts prompted us to assay diterpenoids 3, 4, 6–8 and 10 for antiproliferative activity using six human cancer cell lines (U251, PC-3, K562, HCT-15, MCF-7, and SKLU-1), and a primary culture of healthy gingival human fibroblasts (FGH) at 1.0 or 50.0 μM (when cytotoxicity at 50.0 μM results were too high). […] Overall, the antiproliferative activity determined for 7 was lower than that observed for 6.
as §2, with “CO2. The viability of the cells used in the experiments exceeded 95%, as determined with trypan blue.” for “CO2.”
as §1

[11] = tested on: HeLa cells; parameters: method as in doi:10.1016/j.bjp.2017.01.007; settings: similar activity when compared to cisplatin; cited from earlier work
[12] = tested on: COS-7 normal monkey kidney; assay: Sulforhodamine B (SRB) cytotoxicity assay, COS-7 normal cell line; assay type: cell-based; settings: Primates, mean ± SD
Description: as §2, with “CO2. The viability of the cells used in the experiments exceeded 95%, as determined with trypan blue.” for “CO2.”
as §3, with “The plates were incubated at 4 °C for 1 h, washed with tap water, and air-dried. The trichloroacetic-acid-fixed cells were stained by the addition of 0.4% SRB. The free SRB solution was then removed by washing with 1% aqueous acetic-acid. The plates were air-dried, and the bound dye was dissolved by the addition of 10 mM unbuffered Tris base (100 μL).” left out

[13] = Homo sapiens, U-251, mean n = 2, read-out: Antiproliferative activity (%), U251
[14] = Homo sapiens, K562, mean n = 2, read-out: Antiproliferative activity (%), K562
[15] = Homo sapiens, SK-LU-1, mean n = 2, read-out: Antiproliferative activity (%), SKLU-1
[16] = primary screening at 1.0 μM, mean n = 2

| Compound | melting point | Antiproliferative activity (%), FGH [1] | Edema [2] | Inhibition of Edema (%) [2] | inhibition at 50 µM [3, 13] | IC50 ([4]; Homo sapiens, K562) | inhibition at 50 µM [4, 14] | Antiproliferative activity (%), K562 ([4]; mean n = 2) | inhibition at 50 µM [5] | IC50 [6] | inhibition at 50 µM ([6]; primary screening at 50.0 μM) | Antiproliferative activity (%), MCF-7 ([6]; primary screening at 50.0 μM) | inhibition at 50 µM [7, 15] | inhibition at 50 µM [8] | DPPH inhibitory effect (%) [9] | also measured |
| --- | --- | --- | --- | --- | --- | --- | --- | --- | --- | --- | --- | --- | --- | --- | --- | --- |
| CC(C)C1=C(O)C(=O)C2=C(CC3OC(=O)C4(C)CCC=C(C2)C34)C1=O (stereo not shown) [Compound 7, 7,20-Dihydroanastomosine] | 223 to 227 °C | non-toxic | 15.50 ± 0.76 mg | non-active | 10.1% | 31.2 ± 1.1 µM | 63.2% | moderate toxicity | 17.8% | 33.2 ± 1.2 µM | 62.6% | moderate toxicity | 46.5% | 26.8% | 6.6% |  |
| CC(C)C1=C(O)C(=O)C2=C(C=C[C@@H]3[C@]4(CCC[C@]3(C)C(=O)O4)C2)C1=O [Compound 8, icetexone] |  | lacked of toxicity |  |  | 35.8% | 17 ± 1.4 µM | 83.1% | significant antiproliferative activity | 39.6% | 28.7 ± 1.6 µM | 71.6% | significant antiproliferative activity | 52.9% | 29% | 3.7% | Activity against all other tested cancer cell lines (in words) [10]: moderately active |
| 19-deoxyisoicetexone |  |  |  |  |  |  |  |  |  |  |  |  |  |  |  | IC50 [11]: 9.36 µM |
| CC(=O)OC1CC2C3(CCCC2(C)C(=O)O3)CC2=C1C(=O)C(C(C)C)=C(O)C2=O (stereo not drawn) [Compound 3, 7α-Acetoxy-6,7-dihydroicetexone] | 110 to 115 °C |  | 9.87 ± 0.44 mg | 37.4 ± 2.8% and 37.42 ± 2.77 % |  |  |  |  |  |  |  |  |  |  | 6.1% | IC50 [12]: 1620 ± 100 nM; inhibition at 1 µM ([3]; Homo sapiens, U-251, primary screening at 1.0 μM, mean n = 2, read-out: Antiproliferative activity (%), U251): 65.4%; Antiproliferative activity (%), U251 [3, 16]: moderately active; SI (selectivity index), U251 ([3]; quotient of IC50 of COS-7 / IC50 of U251): 1.2; inhibition at 1 µM ([4]; Homo sapiens, K562, primary screening at 1.0 μM, mean n = 2, read-out: Antiproliferative activity (%), K562): 48.6%; inhibition at 1 µM ([5]; primary screening at 1.0 μM, mean n = 2, read-out: Antiproliferative activity (%), PC-3): 34.2%; Antiproliferative activity (%), MCF-7 ([6]; primary screening at 1.0 μM): non-toxic; IC50 ([7]; Homo sapiens, SK-LU-1, 48 h): 460 ± 50 nM; inhibition at 1 µM ([7]; Homo sapiens, SK-LU-1, primary screening at 1.0 μM, mean n = 2, read-out: Antiproliferative activity (%), SKLU-1): 64.5%; IC50 [7]: 820 ± 60 nM; Antiproliferative activity (%), SKLU-1 [7, 16]: moderately active; SI (selectivity index), SKLU-1 ([7]; quotient of IC50 of COS-7 / IC50 of SKLU-1): 2.0; inhibition at 1 µM ([8]; primary screening at 1.0 μM, mean n = 2, read-out: Antiproliferative activity (%), HCT-15): 33.4% |
